The conditions of data set [1]: 0.5 mg/kg bw oral, within 96 h, cited from earlier work.
The conditions of data set [2]: human urine samples; cited from earlier work.
Data set [3] is described as follows: In vitro incubation of OTA with liver S9 and UDP-glucuronic acid (glucuronide formation). It is filed as in vitro ADME, human. Here is the method:
(§1) Liver S9 fractions from rats (Sprague-Dawley, male, 97 donors, 20 mg/mL) and humans (mixed genders, 50 donors, 20 mg/mL) were obtained from XenoTech (Kansas City, USA). S9 fractions from Goettingen® minipigs and rabbits were prepared in-house based on a modified protocol from Hubbard et al. (1985). Rabbit liver (Blue Vienna x German Giant, female) was obtained from ImmonuGlobe (Himmelstadt, Germany), whereas minipig liver (Goettingen® minipig, male, 42.4 kg bw) was obtained from the University Goettingen, Department of Animal Science.
(§2) For analysis of OTA-derived glucuronides, liver S9 fractions (4 mg/mL) of rats, rabbit, minipigs and humans were incubated with OTA (0.1 mM), uridine-diphosphate-glucuronic acid (5 mM) and magnesium chloride (5 mM) in 100 mM phosphate-buffered saline (pH 7.4) in a total volume of 300 µL at 37 °C for two hours. Control incubations were carried out in the absence of uridine-diphosphate-glucuronic acid. […] Ten microliters (10 µL) of each sample was injected into the LC–MS system and analyzed using the method described below. […]
(§3) The API 2000/Q-Trap mass spectrometer was operated with a Turbo Ion Spray source in negative ion mode with a voltage of −4000 V. Spectral data were recorded with N2 as the heater gas at 450 °C and as the collision gas (CAD = −2) in multiple reaction monitoring mode (MRM).

Test in data set [4]: as above
Format: in vitro ADME, rat. Here is the method:
as §1, §2, §3

Test in data set [5]: as above
Format: in vitro ADME. The following applies: OTA 0.1 mM, UDPGA 5 mM, 37 °C. Here is the method:
as §1, §2, §3

Structures are written as SMILES. Like-named read-outs stand apart in the source and are kept apart here.

With `C[C@@H]1Cc2c(Cl)cc(C(=O)N[C@@H](Cc3ccccc3)C(=O)O)c(O)c2C(=O)O1` [OTA, Ochratoxin A], the “Fraction of orally administered dose excreted in urine” value in data set [1] (female rats) was 5.2%; in data set [1] (male rats) it was 2.1%. Further, in data set [2], the “Concentration in human urine following enzymatic hydrolysis as compared to without hydrolysis” value is reported as “up to 6 fold”.

In the case of `CC1Cc2c(Cl)cc(C(=O)NC(Cc3ccccc3)C(=O)OC3OC(C(=O)O)C(O)C(O)C3O)c(O)c2C(=O)O1` (stereo not drawn) [OTA-Glucuronide], the “Formation of OTA glucuronide (m/z transitions 578/402 and 578/358)” value in data set [3] (human liver S9 4 mg/mL, OTA 0.1 mM, UDPGA 5 mM, 37 °C) is on record as “detected”; in data set [4] (rat liver S9 4 mg/mL, OTA 0.1 mM, UDPGA 5 mM, 37 °C) it was “detected”; in data set [5] (minipig liver S9 4 mg/mL), “detected”; in data set [5] (rabbit liver S9 4 mg/mL), “detected”. The “OTA-glucuronide formed as compared to rabbit and minipig samples (signal intensities)” value in data set [3] (human liver S9 vs rabbit and minipig liver S9) is 5–10 times; in data set [4] (rat liver S9 vs rabbit and minipig liver S9), 5–10 times.

Values taken from paper PMC8402547, “In Vitro and In Vivo Analysis of Ochratoxin A-Derived Glucuronides and Mercapturic Acids as Biomarkers of Exposure” (Toxins, 2021).
